Data reported in PMC12480666, “A robust platform streamlining aromatic noncanonical amino acid biosynthesis and genetic code expansion in Escherichia coli” (Nature Communications, 2025).

Biological target: T1, TyrB (aromatic amino acid aminotransferase) (Escherichia coli, UniProt P04693)
T1 construct: recombinant, purified from E. coli
T1 sequence (P04693 1-397): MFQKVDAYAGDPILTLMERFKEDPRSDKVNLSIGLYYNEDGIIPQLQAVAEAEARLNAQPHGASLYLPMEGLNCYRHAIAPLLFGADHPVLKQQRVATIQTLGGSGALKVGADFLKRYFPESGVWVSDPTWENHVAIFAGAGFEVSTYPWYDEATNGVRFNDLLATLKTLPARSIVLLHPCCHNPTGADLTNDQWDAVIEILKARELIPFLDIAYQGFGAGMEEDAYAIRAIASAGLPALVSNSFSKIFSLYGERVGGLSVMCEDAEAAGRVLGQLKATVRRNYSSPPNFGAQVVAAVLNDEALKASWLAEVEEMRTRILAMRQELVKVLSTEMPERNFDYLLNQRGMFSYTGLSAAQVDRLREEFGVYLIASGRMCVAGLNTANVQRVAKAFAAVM
Assay: in vitro cascade of purified PpLTA, RpTD and TyrB
Format: biochemical
Conditions: final transamination step

Row | SMILES | in vitro cascade of purified PpLTA, RpTD and TyrB (from 1 mM para-methylbenzaldehyde) | in vitro cascade of purified PpLTA, RpTD and TyrB (from 1 mM para-iodobenzaldehyde)
1 | Cc1ccc(C[C@H](N)C(=O)O)cc1 [p-methylphenylalanine] | the enzyme cascade efficiently converted the substrates into their corresponding amino acids | –
2 | N[C@@H](Cc1ccc(I)cc1)C(=O)O [compound 19, p-iodophenylalanine] | – | the enzyme cascade efficiently converted the substrates into their corresponding amino acids
